Reference: patent publication US5593984A, “Cephalosporin derivatives” (Yuhan Corporation, priority 1992, dated 1997)
Converted amounts (≈) assume the structure as drawn.

Assays:
Assay type in all cases: cell-based
[1] = tested on: B. subtilis ATCC 6633; assay: MIC by agar dilution, B. subtilis ATCC 6633; conditions: Bacillus subtilis, ATCC6633, 17 h; B. subtilis ATCC 6633; agar dilution, Mueller-Hinton agar; read-out: Minimal Inhibitory Concentration (MIC)
Outline: (§1)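 Following inoculation at 10^6 CFU per ml onto agar containing two-fold compound dilutions, plates were incubated 17±1 hours at 35°-37° C.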

[2] = tested on: Staph. aureus ATCC 6538P; assay: MIC by agar dilution, Staph. aureus ATCC 6538P; conditions: Staphylococcus aureus, ATCC6538P, 17 h; Staph. aureus ATCC 6538P; agar dilution, Mueller-Hinton agar; read-out: Minimal Inhibitory Concentration (MIC)
Outline: as §1

[3] = tested on: Staph. aureus Smith; assay: MIC by agar dilution, Staph. aureus Smith; conditions: Staphylococcus aureus, 17 h, Mueller-Hinton agar, read-out: Minimal Inhibitory Concentration (MIC)
Outline: as §1

[4] = tested on: Staph. aureus C-57; assay: MIC by agar dilution, Staph. aureus C-57; conditions: Staphylococcus aureus, C57, 17 h, Mueller-Hinton agar, read-out: Minimal Inhibitory Concentration (MIC)
Outline: as §1

[5] = tested on: Staph. aureus C-5113; assay: MIC by agar dilution, Staph. aureus C-5113; conditions: Staphylococcus aureus, C5113, 17 h, Mueller-Hinton agar, read-out: Minimal Inhibitory Concentration (MIC)
Outline: as §1

[6] = tested on: Staph. aureus C-5216; assay: MIC by agar dilution, Staph. aureus C-5216; conditions: Staphylococcus aureus, C5216, 17 h, Mueller-Hinton agar, read-out: Minimal Inhibitory Concentration (MIC)
Outline: as §1

[7] = tested on: S. epidermidis ATCC 12228; assay: MIC by agar dilution, S. epidermidis ATCC 12228; conditions: Staphylococcus epidermidis, ATCC12228, 17 h; S. epidermidis ATCC 12228; agar dilution, Mueller-Hinton agar; read-out: Minimal Inhibitory Concentration (MIC)
Outline: as §1

[8] = tested on: Ent. aerogenes IFO 12979; assay: MIC by agar dilution, Ent. aerogenes IFO 12979; conditions: Klebsiella aerogenes, IFO12979, 17 h, Mueller-Hinton agar, read-out: Minimal Inhibitory Concentration (MIC)
Outline: as §1

[9] = tested on: Ent. cloacae IFO 13535; assay: MIC by agar dilution, Ent. cloacae IFO 13535; conditions: Enterobacter cloacae, IFO13535, 17 h; Ent. cloacae IFO 13535; agar dilution, Mueller-Hinton agar; read-out: Minimal Inhibitory Concentration (MIC)
Outline: as §1

[10] = tested on: E. coli NIHJ JC-2; assay: MIC by agar dilution, E. coli NIHJ JC-2; conditions: Escherichia coli, NIHJJC2, 17 h; E. coli NIHJ JC-2; agar dilution, Mueller-Hinton agar; read-out: Minimal Inhibitory Concentration (MIC)
Outline: as §1

[11] = tested on: E. coli No. 29; assay: MIC by agar dilution, E. coli No. 29; conditions: Escherichia coli, 17 h; E. coli No. 29; agar dilution, Mueller-Hinton agar; read-out: Minimal Inhibitory Concentration (MIC)
Outline: as §1

[12] = tested on: E. coli DY-1; assay: MIC by agar dilution, E. coli DY-1; conditions: Escherichia coli, DY1, 17 h; E. coli DY-1; agar dilution, Mueller-Hinton agar; read-out: Minimal Inhibitory Concentration (MIC)
Outline: as §1

[13] = tested on: K. pneumoniae NCTC 9632; assay: MIC by agar dilution, K. pneumoniae NCTC 9632; conditions: Klebsiella pneumoniae, NCTC9632, 17 h; K. pneumoniae NCTC 9632; agar dilution, Mueller-Hinton agar; read-out: Minimal Inhibitory Concentration (MIC)
Outline: as §1

[14] = tested on: M. morganii DY-1; assay: MIC by agar dilution, M. morganii DY-1; conditions: Morganella morganii, DY1, 17 h; M. morganii DY-1; agar dilution, Mueller-Hinton agar; read-out: Minimal Inhibitory Concentration (MIC)
Outline: as §1

[15] = tested on: Ps. aeruginosa ATCC 10145; assay: MIC by agar dilution, Ps. aeruginosa ATCC 10145; conditions: Pseudomonas aeruginosa, ATCC10145, 17 h, Mueller-Hinton agar, read-out: Minimal Inhibitory Concentration (MIC)
Outline: as §1

[16] = tested on: Ps. aeruginosa NCTC 10490; assay: MIC by agar dilution, Ps. aeruginosa NCTC 10490; conditions: Pseudomonas aeruginosa, NCTC10490, 17 h, Mueller-Hinton agar, read-out: Minimal Inhibitory Concentration (MIC)
Outline: as §1

[17] = tested on: Ps. aeruginosa DY-2; assay: MIC by agar dilution, Ps. aeruginosa DY-2; conditions: Pseudomonas aeruginosa, DY2, 17 h; Ps. aeruginosa DY-2; agar dilution, Mueller-Hinton agar; read-out: Minimal Inhibitory Concentration (MIC)
Outline: as §1

[18] = tested on: P. vulgaris NCTC 8313; assay: MIC by agar dilution, P. vulgaris NCTC 8313; conditions: Proteus vulgaris, NCTC8313, 17 h; P. vulgaris NCTC 8313; agar dilution, Mueller-Hinton agar; read-out: Minimal Inhibitory Concentration (MIC)
Outline: as §1

[19] = tested on: Prov. stuartii IFO 12930; assay: MIC by agar dilution, Prov. stuartii IFO 12930; conditions: Providencia stuartii, IFO12930, 17 h, Mueller-Hinton agar, read-out: Minimal Inhibitory Concentration (MIC)
Outline: as §1

[20] = tested on: Ser. marcescens IFO 12648; assay: MIC by agar dilution, Ser. marcescens IFO 12648; conditions: Serratia marcescens, IFO12648, 17 h; Ser. marcescens IFO 12648; agar dilution, Mueller-Hinton agar; read-out: Minimal Inhibitory Concentration (MIC)
Outline: as §1

MIC [1] | MIC [2] | MIC [3] | MIC [4] | MIC [5] | MIC [6] | MIC [7] | MIC [8] | MIC [9] | MIC [10] | MIC [11] | MIC [12] | MIC [13] | MIC [14] | MIC [15] | MIC [16] | MIC [17] | MIC [18] | MIC [19] | MIC [20] | Structure (SMILES)
0.39 µg/mL (≈ 0.629 µM) | 0.39 µg/mL (≈ 0.629 µM) | 1.56 µg/mL (≈ 2.51 µM) | 25 µg/mL (≈ 40.3 µM) | 1.56 µg/mL (≈ 2.51 µM) | 3.13 µg/mL (≈ 5.04 µM) | 0.1 µg/mL (≈ 0.161 µM) | 0.05 µg/mL (≈ 0.0806 µM) | 0.78 µg/mL (≈ 1.26 µM) | 0.2 µg/mL (≈ 0.322 µM) | 0.05 µg/mL (≈ 0.0806 µM) | 0.025 µg/mL (≈ 0.0403 µM) | 0.2 µg/mL (≈ 0.322 µM) | 0.2 µg/mL (≈ 0.322 µM) | 6.25 µg/mL (≈ 10.1 µM) | 3.13 µg/mL (≈ 5.04 µM) | 25 µg/mL (≈ 40.3 µM) | 0.025 µg/mL (≈ 0.0403 µM) | 0.05 µg/mL (≈ 0.0806 µM) | 0.2 µg/mL (≈ 0.322 µM) | CCO/N=C(\C(=O)N[C@@H]1C(=O)N2C(C(=O)[O-])=C(C[n+]3ccn4c(Br)ccc4c3C)CS[C@H]12)c1csc(N)n1 [Ex. 42, 7-β-[(Z)-2-(2-aminothiazol-4-yl)-2-ethoxyiminoacetamido]-3-(6-bromo-1-methylpyrrolo[1,2-a]pyrazinium-2-yl)methyl-3-cephem-4-carboxylate]
0.05 µg/mL (≈ 0.0898 µM) | 0.2 µg/mL (≈ 0.359 µM) | 0.39 µg/mL (≈ 0.701 µM) | 12.5 µg/mL (≈ 22.5 µM) | 0.78 µg/mL (≈ 1.4 µM) | 0.78 µg/mL (≈ 1.4 µM) | 0.025 µg/mL (≈ 0.0449 µM) | ≤ 0.006 µg/mL | 0.1 µg/mL (≈ 0.18 µM) | ≤ 0.006 µg/mL | ≤ 0.006 µg/mL | ≤ 0.006 µg/mL | ≤ 0.006 µg/mL | ≤ 0.006 µg/mL | 0.39 µg/mL (≈ 0.701 µM) | 0.1 µg/mL (≈ 0.18 µM) | 3.13 µg/mL (≈ 5.62 µM) | 0.012 µg/mL (≈ 0.0216 µM) | ≤ 0.006 µg/mL | 0.012 µg/mL (≈ 0.0216 µM) | CON=C(C(=O)NC1C(=O)N2C(C(=O)[O-])=C(C[n+]3ccn4c(C(N)=O)ccc4c3)CSC12)c1csc(N)n1 (stereo not drawn) [Ex. 15, 7-β-[(Z)-2-(2-aminothiazol-4-yl)-2-methoxyiminoacetamido]-3-(6-carbamoylpyrrolo[1,2-a]pyrazinium-2-yl)methyl-3-cephem-4-carboxylate]
0.2 µg/mL (≈ 0.369 µM) | 0.2 µg/mL (≈ 0.369 µM) | 0.39 µg/mL (≈ 0.72 µM) | 12.5 µg/mL (≈ 23.1 µM) | 0.78 µg/mL (≈ 1.44 µM) | 1.56 µg/mL (≈ 2.88 µM) | 0.1 µg/mL (≈ 0.185 µM) | 0.025 µg/mL (≈ 0.0462 µM) | 0.2 µg/mL (≈ 0.369 µM) | 0.025 µg/mL (≈ 0.0462 µM) | 0.012 µg/mL (≈ 0.0222 µM) | 0.012 µg/mL (≈ 0.0222 µM) | 0.025 µg/mL (≈ 0.0462 µM) | 0.025 µg/mL (≈ 0.0462 µM) | 1.56 µg/mL (≈ 2.88 µM) | 0.39 µg/mL (≈ 0.72 µM) | 3.13 µg/mL (≈ 5.78 µM) | ≤ 0.006 µg/mL | 0.012 µg/mL (≈ 0.0222 µM) | 0.05 µg/mL (≈ 0.0923 µM) | CCO/N=C(\C(=O)N[C@@H]1C(=O)N2C(C(=O)[O-])=C(C[n+]3ccn4cccc4c3C)CS[C@H]12)c1csc(N)n1 [Ex. 41, 7-β-[(Z)-2-(2-aminothiazol-4-yl)-2-ethoxyiminoacetamido]-3-(1-methylpyrrolo[1,2-a]pyrazinium-2-yl)methyl-3-cephem-4-carboxylate]
0.2 µg/mL (≈ 0.36 µM) | 0.2 µg/mL (≈ 0.36 µM) | 0.78 µg/mL (≈ 1.4 µM) | 25 µg/mL (≈ 45 µM) | 0.78 µg/mL (≈ 1.4 µM) | 1.56 µg/mL (≈ 2.81 µM) | 0.05 µg/mL (≈ 0.09 µM) | 0.012 µg/mL (≈ 0.0216 µM) | 0.1 µg/mL (≈ 0.18 µM) | 0.012 µg/mL (≈ 0.0216 µM) | 0.025 µg/mL (≈ 0.045 µM) | 0.012 µg/mL (≈ 0.0216 µM) | 0.025 µg/mL (≈ 0.045 µM) | 0.025 µg/mL (≈ 0.045 µM) | 1.56 µg/mL (≈ 2.81 µM) | 0.2 µg/mL (≈ 0.36 µM) | 6.25 µg/mL (≈ 11.2 µM) | 0.012 µg/mL (≈ 0.0216 µM) | 0.012 µg/mL (≈ 0.0216 µM) | 0.012 µg/mL (≈ 0.0216 µM) | CON=C(C(=O)NC1C(=O)N2C(C(=O)[O-])=C(C[n+]3ccn4c(C(C)=O)ccc4c3)CSC12)c1csc(N)n1 (stereo not drawn) [Ex. 18, 7-β-[(Z)-2-(2-aminothiazol-4-yl)-2-methoxyiminoacetamido]-3-(6-acetylpyrrolo[1,2-a]pyrazinium-2-yl)methyl-3-cephem-4-carboxylate]
